Measured values taken from PMC3135573 (Analytical biochemistry, 2011).
Like-named read-outs stand apart in the source and are kept apart here. Marks after values point to notes of the source that are not given here.

Columns and labels:
[1] = biological target: T1, BioA (Mycobacterium tuberculosis, UniProt P9WQ81); type: biochemical
[2] = biological target: T1, BioA; settings: cited from earlier work
[3] = biological target: T1, BioA; settings: biodisc assay ref 37; cited from earlier work

T1 sequence (P9WQ81 whole entry, looked up): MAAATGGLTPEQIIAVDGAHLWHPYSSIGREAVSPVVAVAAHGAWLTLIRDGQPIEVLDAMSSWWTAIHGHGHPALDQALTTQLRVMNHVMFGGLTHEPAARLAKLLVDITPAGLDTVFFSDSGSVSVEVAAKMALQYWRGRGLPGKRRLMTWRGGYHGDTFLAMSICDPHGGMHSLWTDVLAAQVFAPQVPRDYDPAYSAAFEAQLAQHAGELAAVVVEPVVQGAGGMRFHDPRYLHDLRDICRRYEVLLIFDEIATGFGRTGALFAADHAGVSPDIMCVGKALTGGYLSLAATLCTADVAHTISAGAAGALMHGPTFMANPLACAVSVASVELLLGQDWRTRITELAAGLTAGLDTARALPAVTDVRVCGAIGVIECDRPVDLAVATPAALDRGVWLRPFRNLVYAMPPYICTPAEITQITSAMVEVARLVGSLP

## O[C@@H](CS)[C@@H](O)CS (racemic) [DTT, dithiothreitol]
[1]; addition of 2 mM DTT
  decrease of the initial velocity: 18%

## C[C@@H](N)C(=O)CCCCCC(=O)O [(R)-KAPA]
[2]
  inhibition of BioA (in words): potent inhibitor of BioA

## C[C@H](N)C(=O)CCCCCC(=O)O.Cl [KAPA, (S)-8-Amino-7-oxononanoic acid hydrochloride salt]
[1]; this study, 50 nM BioA, 5 mM SAM, KAPA 0–12.5 μM
  KmKAPA: 1.9 ± 0.1 µM
[3]
  KmKAPA: 1.3 ± 0.3 ^a μM

## C[S+](CC[C@H](N)C(=O)[O-])C[C@H]1O[C@@H](n2cnc3c(N)ncnc32)[C@H](O)[C@@H]1O (stereo partly drawn) [SAM, S-adenosyl methionine]
[1]; this study, 50 nM BioA, 12.5 μM KAPA, SAM 0.12–15 mM
  KmSAM: 1.17 ± 0.06 mM
[3]
  KmSAM: 1.4 ± 0.3 ^a mM
